Measurements as given in patent US9879303B2, “Chromogenic glucuronidase substrates and uses” (Glycosynth Limited, priority 2013, dated 2018).
Structures can show the parent of a compound that is named as a salt.

System: E. coli clinical isolates
Experiment: screen of strains in broth medium containing FAC
Assay type: cell-based
Set-up: key to colour: Red, Green, Black or Purple mean strong colour; Red, Green, Black or Purple mean strong colour; Red, Green, Black or Purple mean strong colour; Red, Green, Black or Purple mean strong colour; +/− means less colour than strong; Tr means a trace of colour, less than +/−; — means no colour
Details: for colour: 37° C. 18 hours
Description: In order to obtain a fuller picture of the sensitivity of the substrates, they were screened with 100 different clinical isolates of E. coli in a liquid medium containing FAC. The isolates were chosen at random from the Microbiology Department, Freeman Hospital, Newcastle Upon Tyne, UK. The effectiveness of the new substrates was compared with three other media which all contained indoxyl-β-D-glucuronides. One was a commercial medium, CPS ID 3 (bioMérieux SA, Lyon, France). […] This medium was employed as a control. Among the β-D-glucuronidase producing strains of E. coli there is a large variation in the quantity of the enzyme produced and it is almost certain that the CPS ID 3 medium has been rigorously optimised to allow good growth of all the target organisms and maximum expression of the target enzymes. Therefore, two indoxyl glucuronides, X-β-D-glucuronide CHA salt and Rose-β-D-glucuronide CHA salt were also tested in a simple agar medium to allow a direct comparison of the sensitivity of these Indoxyl glucuronides when used in a medium that has not been optimised for the growth of the target organism. The comparison of the results for Rose-β-D-glucuronide and the CPS ID 3 medium was of particular significance as the commercial medium also uses Rose-β-D-glucuronide for the detection of E. coli. For consistency, the four glucuronides were all chosen as their CHA salts. As already stated, it is not anticipated that the salt form is critical to their performance. Currently. X-β-D-glucuronide is often used as either the CHA salt or the sodium salt. Brenner and colleagues [K. P. Brenner et al, Appl. Environ. Microbiol., 59, 3534-3544, (1993)] found no difference in the performance of the CHA and sodium salt forms with their application using indoxyl-β-D-glucuronide, neither in respect of colour development nor in the recovery of E. coli.
The two indoxyl glucuronides used produce insoluble endpoints following hydrolysis, as does the CPS ID 3 medium. It was therefore necessary to test these two substrates on agar plates. In contrast, catechol-β-D-glucuronide (1) and DHN-β-D-glucuronide (2b) give much more soluble endpoints best suited to liquid media and were therefore tested in a broth medium. Each broth was prepared using proteose peptone (Oxoid, Basingstoke, UK) (2 g), NaCl (1 g) and FAC (100 mg) in DI water (180 mL). This mixture was autoclaved and cooled to room temperature before being dispensed into bijoux (100×1.8 mL). Catechol β-D-glucuronide CHA salt (1) or DHN-β-D-glucuronide CHA salt (2b) (60 mg) were each dissolved in water (20 mL) and filtered to sterilize before being aseptically dispensed into successive bijoux (0.2 mL) containing the broth solution. The broth/substrate solutions were then inoculated with bacterial suspensions made up to 0.5 McFarland standard (2 μL per bijoux). X-β-D-glucuronide CHA salt (Glycosynth Ltd, Warrington, UK) (10 mg) was dissolved in NMP (200 μL). Rose-β-D-glucuronide CHA salt (Glycosynth Ltd, Warrington, UK) (20 mg) was dissolved in NMP (200 μL). These solutions were then added to Columbia agar (Oxoid, Basingstoke, UK) (100 mL) and inoculated with bacterial suspensions made up to 0.5 McFarland standard (1 μL). The plates and broths were incubated at 37° C. for 18 hours in air.

[1] = 100 E. coli strains after 18 h incubation, broth

Q: With `O=C(O)C1OC(Oc2ccccc2O)C(O)C(O)C1O` [Compound 1, Catechol β-D-Glucuronide CHA Salt] as the molecule, how does the “% Sensitivity” value [1] read?
A: 83%

Q: And the Negative strains [1]?
A: 17

Q: And the Positive strains [1]?
A: 83

Q: What about the colour (E. coli 260262P, broth) of the same molecule?
A: Black

Q: And the colour (E. coli 260280Z, broth)?
A: Black

Q: And the colour (E. coli 260310H, broth)?
A: Black

Q: And the colour (E. coli 260313A, broth)?
A: —

Q: What about the colour (E. coli 260316T, broth) of the same molecule?
A: —

Q: What about the colour (E. coli 260327V, broth) of the same molecule?
A: Black

Q: And the colour (E. coli 260330Y, broth)?
A: Black

Q: What about the colour (E. coli 260333P, broth) of the same molecule?
A: —

Q: What about the colour (E. coli 260345F, broth) of the same molecule?
A: Black

Q: And the colour (E. coli 260348K, broth)?
A: Black

Q: What about the colour (E. coli 260354W, broth) of the same molecule?
A: Black

Q: And the colour (E. coli 260364H, broth)?
A: Black

Q: And the colour (E. coli 260370C, broth)?
A: Black

Q: And the colour (E. coli 260375E, broth)?
A: Black

Q: What about the colour (E. coli 260390B, broth) of the same molecule?
A: —

Q: And the colour (E. coli 260396Z, broth)?
A: Black

Q: What about the colour (E. coli 260398Q, broth) of the same molecule?
A: Black

Q: What about the colour (E. coli 260400N, broth) of the same molecule?
A: —

Q: What about the colour (E. coli 260401Q, broth) of the same molecule?
A: Black

Q: And the colour (E. coli 260402H, broth)?
A: Black

Q: And the colour (E. coli 260404W, broth)?
A: Black

Q: And the colour (E. coli 260405P, broth)?
A: Black

Q: And the colour (E. coli 260406A, broth)?
A: —

Q: And the colour (E. coli 260406Y, broth)?
A: Black

Q: And the colour (E. coli 260407F, broth)?
A: Black

Q: What about the colour (E. coli 260408C, broth) of the same molecule?
A: Black

Q: And the colour (E. coli 260411Z, broth)?
A: Black

Q: What about the colour (E. coli 260412Q, broth) of the same molecule?
A: Black

Q: And the colour (E. coli 260414H, broth)?
A: Black

Q: And the colour (E. coli 260415Y, broth)?
A: Black

Q: What about the colour (E. coli 260416W, broth) of the same molecule?
A: Black

Q: And the colour (E. coli 260417P, broth)?
A: Black

Q: What about the colour (E. coli 260422Y, broth) of the same molecule?
A: Black

Q: What about the colour (E. coli 260424P, broth) of the same molecule?
A: Black

Q: What about the colour (E. coli 260425A, broth) of the same molecule?
A: Black

Q: And the colour (E. coli 260426F, broth)?
A: Black

Q: What about the colour (E. coli 260428T, broth) of the same molecule?
A: Black

Q: What about the colour (E. coli 260431N, broth) of the same molecule?
A: Black

Q: And the colour (E. coli 260432E, broth)?
A: Black

Q: And the colour (E. coli 260433H, broth)?
A: Black

Q: What about the colour (E. coli 260434Y, broth) of the same molecule?
A: Black

Q: And the colour (E. coli 260435W, broth)?
A: Black

Q: What about the colour (E. coli 260436P, broth) of the same molecule?
A: Black

Q: What about the colour (E. coli 260437A, broth) of the same molecule?
A: —

Q: What about the colour (E. coli 260438F, broth) of the same molecule?
A: Black

Q: And the colour (E. coli 260439C, broth)?
A: Black

Q: What about the colour (E. coli 260440S, broth) of the same molecule?
A: Black

Q: What about the colour (E. coli 260441G, broth) of the same molecule?
A: Black

Q: And the colour (E. coli 260458Y, broth)?
A: Black

Q: And the colour (E. coli 260459W, broth)?
A: Black

Q: And the colour (E. coli 260463D, broth)?
A: Black

Q: And the colour (E. coli 260464G, broth)?
A: Black

Q: And the colour (E. coli 260471B, broth)?
A: —

Q: What about the colour (E. coli 260478N, broth) of the same molecule?
A: —

Q: And the colour (E. coli 260479Q, broth)?
A: Black

Q: What about the colour (E. coli 260480M, broth) of the same molecule?
A: Black

Q: And the colour (E. coli 260481J, broth)?
A: Black

Q: And the colour (E. coli 260483R, broth)?
A: —

Q: What about the colour (E. coli 260485D, broth) of the same molecule?
A: Black

Q: What about the colour (E. coli 260486L, broth) of the same molecule?
A: Black

Q: And the colour (E. coli 260492J, broth)?
A: Black

Q: And the colour (E. coli 260494B, broth)?
A: Black

Q: What about the colour (E. coli 260495R, broth) of the same molecule?
A: Black

Q: And the colour (E. coli 260497D, broth)?
A: Black

Q: And the colour (E. coli 260502G, broth)?
A: Black

Q: What about the colour (E. coli 260503Z, broth) of the same molecule?
A: Black

Q: And the colour (E. coli 260504N, broth)?
A: Black

Q: What about the colour (E. coli 260505Q, broth) of the same molecule?
A: —

Q: And the colour (E. coli 260506E, broth)?
A: Black

Q: What about the colour (E. coli 260508Y, broth) of the same molecule?
A: Black

Q: What about the colour (E. coli 260509W, broth) of the same molecule?
A: Black

Q: And the colour (E. coli 260510R, broth)?
A: Black

Q: And the colour (E. coli 260511X, broth)?
A: Black

Q: And the colour (E. coli 260514G, broth)?
A: —

Q: And the colour (E. coli 260515Z, broth)?
A: Black

Q: What about the colour (E. coli 260521S, broth) of the same molecule?
A: Black

Q: What about the colour (E. coli 260522Z, broth) of the same molecule?
A: Black

Q: And the colour (E. coli 260532S, broth)?
A: Black

Q: What about the colour (E. coli 260533G, broth) of the same molecule?
A: Black

Q: And the colour (E. coli 260536Q, broth)?
A: Black

Q: What about the colour (E. coli 260537E, broth) of the same molecule?
A: —

Q: What about the colour (E. coli 260538H, broth) of the same molecule?
A: —

Q: What about the colour (E. coli 260539Y, broth) of the same molecule?
A: Black

Q: And the colour (E. coli 260541R, broth)?
A: Black

Q: What about the colour (E. coli 260545G, broth) of the same molecule?
A: Black

Q: What about the colour (E. coli 260547N, broth) of the same molecule?
A: Black

Q: And the colour (E. coli 260548Q, broth)?
A: Black

Q: And the colour (E. coli 260549E, broth)?
A: Black

Q: What about the colour (E. coli 260553X, broth) of the same molecule?
A: —

Q: And the colour (E. coli 260554D, broth)?
A: Black

Q: What about the colour (E. coli 260555L, broth) of the same molecule?
A: Black

Q: And the colour (E. coli 260563B, broth)?
A: Black

Q: And the colour (E. coli 260564R, broth)?
A: Black

Q: And the colour (E. coli 260578D, broth)?
A: —

Q: What about the colour (E. coli 2603121P, broth) of the same molecule?
A: —

Q: And the colour (E. coli 2604399E, broth)?
A: Black

Q: And the colour (E. coli O157 non-toxigenic, broth)?
A: —

Q: What about the “colour of positive solutions” value (broth with FAC, in words) of the same molecule?
A: greyish-black solutions, sometimes with black flakes
